From patent US5637262A, “Photochromic substituted naphthopyran compounds” (Transitions Optical, Inc., priority 1995, dated 1997)

Assays:
Assay type in all cases: physicochemical
[1] = Activating wavelength by UV spectrophotometer (diethylene glycol dimethyl ether); conditions: for ACTIVATING WAVELENGTH: Table 3; for Activating Wavelength in Diethylene Glycol Dimethyl Ether: Table 1, approximately 0.5 milligram per milliliter in diethylene glycol dimethyl ether
Experimental: The products of Examples 1, 5, 8, 9, and Comparative Examples 1 and 2 were dissolved in diethylene glycol dimethyl ether. The concentrations of the resulting solutions were approximately 0.5 milligram per milliliter. Each solution was tested in a UV spectrophotometer to determine its activating wavelength. The activating wavelength reported in Table 1 is the wavelength at which activation of the photochromic compound occurs in diethylene glycol dimethyl ether. That value corresponds to the absorption peak in the ultraviolet region that is closest to the visible region or the threshold range, i.e., 390 to 410 nanometers, if there is only one absorption peak in this region. If there is more than one absorption peak, the activating wavelength corresponds most closely to the absorption peak that immediately proceeds the peak of longer wavelength in the ultraviolet region or the threshold range.

[2] = Solar response / loss in response on optical bench with 320 nm and 360 nm filters (Part C); conditions: for Δ OD @ 320 nm / Δ OD @ 360 nm: 15 minute exposure; for Δ OD @ 320 nm: 320 nanometer filter; for Δ OD @ 360 nm: 360 nanometer filter; for % LOSS IN RESPONSE: (OD 320 nm - OD 360 nm)/OD 320 nm x 100; for BLEACH RATE T 1/2: polymeric matrix prepared from a diethylene glycol bis(allyl carbonate) composition
Experimental: (§1) The test samples were evaluated for photochromic response rates on an optical bench. The samples were illuminated by a 150 watt Xenon lamp fitted with a copper sulfate bath, a 320 nanometer filter, and a neutral density filter at an intensity of about one sun. A second beam of light provided by a filtered tungsten lamp arranged to pass through the sample area exposed by the UV source was used to monitor changes in transmission of the sample over different wavelength ranges in the visible region of the spectrum. The intensity of the monitoring beam after passing through the sample was measured by means of an IL-1500 radiometer equipped with a silicon detector head and matching filters.
(§2) The Δ OD/Min, which represents the sensitivity of the photochromic compound's response to UV light, was measured using photopic filters on the silicon detector. The response of the filtered detector approximated the luminosity curve. The Δ OD was measured over the first five (5) seconds of UV exposure, then expressed on a per minute basis. The saturation optical density (OD) was taken under identical conditions as the Δ OD/Min, except UV exposure was continued for 20 minutes for the examples in Table 2. The Bleach Rate T 1/2 is the time interval in seconds for the absorbance of the activated form of the naphthopyran in the test polymers to reach one half the highest absorbance at room temperature (72° F., 22.2° C.) after removal of the source of activating light.
The solar response for naphthopyrans of Example 7 and Comparative Examples 3 and 4 was measured using the optical bench described in Part B. The naphthopyrans were imbibed by thermal transfer into test squares of a polymeric matrix prepared from a diethylene glycol bis(allyl carbonate) composition and two optical density measurements were made after 15 minute exposures to a UV source first fitted with a 320 nanometer filter and then fitted with a 360 nanometer filter. The loss in response was calculated by subtracting the optical density obtained with the 360 nanometer filter from the optical density obtained with the 320 nanometer filter and then dividing this figure by the optical density obtained with the 320 nanometer filter and multiplying by 100.
The loss in response measurement, expressed as a percent, simulates the difference between the photochromic response of the compounds exposed to full mid-day sun and to low light conditions, such as early day and late in the day when the lower wavelength components of the UV spectrum are attenuated.

[3] = Photochromic response on optical bench in homopolymer of diethylene glycol bis(allyl carbonate) test squares (Part B); conditions: for BLEACH RATE T 1/2: Table 2, room temperature (72° F., 22.2° C.), homopolymer of diethylene glycol bis(allyl carbonate); for Δ OD @ SATURATION: UV exposure 20 minutes; for Δ OD @ SATURATION / Δ OD/Min SENSITIVITY: 320 nanometer filter, homopolymer test squares; for Δ OD/Min SENSITIVITY: first five (5) seconds of UV exposure, per minute basis
Experimental: Each naphthopyran was dissolved into toluene solvent to form a 4 weight percent solution of the compound. A piece of No. 4 Whatman filter paper was saturated with the naphthopyran solution and allowed to air dry. The dried filter paper was placed on one side of the polymer test square, which measured 1/8 inch (0.3 centimeter)×2 inch (5.1 centimeters)×2 inch (5.1 centimeters). A piece of untreated filter paper was placed on the other side of the polymer test square and the resulting sandwich placed between two plates of flat aluminum metal plates. […] The imbibed test squares were washed with acetone after removal from the oven.
as §1
as §2, with “2.” for “2. The Bleach Rate T 1/2 is the time interval in seconds for the absorbance of the activated form of the naphthopyran in the test polymers to reach one half the highest absorbance at room temperature (72° F., 22.2° C.) after removal of the source of activating light.”

SMILES	ACTIVATING WAVELENGTH [1] [nm]	Δ OD @ 320 nm [2]	Δ OD @ 360 nm [2]	% LOSS IN RESPONSE [2] [%]	BLEACH RATE T 1/2 ([2]; Table 3) [min]	Activating Wavelength in Diethylene Glycol Dimethyl Ether [1] [nm]	BLEACH RATE T 1/2 [3] [min]	Δ OD @ SATURATION [3]	Δ OD/Min SENSITIVITY [3]	other results
COc1ccc(C2(c3ccccc3F)C=Cc3c(ccc4cc(OC)ccc34)O2)cc1 (stereo not drawn) [Comparative Example 3, 3-(2-fluorophenyl)-3-(4-methoxyphenyl)-8-methoxy-3H-naphtho[2,1-b]pyran]	359	0.266	0.249	6	5.93	–	–	–	–	–
CCCOC(=O)c1cc2c3c(ccc2cc1O)OC(c1ccccc1)(c1ccccc1)C=C3 [Example 1, 3,3-diphenyl-8-hydroxy-9-carbopropoxy-3H-naphtho[2,1-b]pyran]	–	–	–	–	–	408	–	–	–	–
CCCOC(=O)c1cc2c3c(ccc2cc1OC)OC(c1ccccc1)(c1ccccc1)C=C3 [Example 5, 3,3-diphenyl-8-methoxy-9-carbopropoxy-3H-naphtho[2,1-b]pyran]	–	–	–	–	–	382	1.33	0.55	1.4 Δ OD/Min	Sensitivity (in words) ([3]; compared to comparative examples 1 and 2): increased sensitivity as compared to the compounds of comparative examples 1 and 2
COC(=O)c1cc2c3c(ccc2cc1OC)OC(c1ccc(OC)cc1)(c1ccccc1F)C=C3 (stereo not drawn) [Example 7, 3-(2-fluorophenyl)-3-(4-methoxyphenyl)-8-methoxy-9-carbomethoxy-3H-naphtho[2,1-b]pyran]	384	0.187	0.184	2	3.27	–	–	–	–	Bleach Rate T 1/2, i.e., rate of fade (in words) ([2]; Table 3): more acceptable Bleach Rate T 1/2; Reduction in optical density, 360 nm vs 320 nm cutoff filter (in words) ([2]; compared to comparative examples 3 and 4): less reduction in optical density
COC(=O)c1cc2c3c(ccc2cc1OC(C)=O)OC(c1ccc(OC)cc1)(c1ccc(OC)cc1OC)C=C3 (stereo not drawn) [Example 8, 3-(2,4-dimethoxy-phenyl)-3-(4-methoxyphenyl)-8-acetoxy-9-carbomethoxy-3H-naphtho-[2,1-b]pyran]	–	–	–	–	–	376	–	–	–	–
COc1ccc2c3c(ccc2c1C)OC(c1ccccc1)(c1ccccc1)C=C3 [Example 9, 3,3-diphenyl-7-methyl-8-methoxy-3H-naphtho[2,1-b]pyran]	–	–	–	–	–	369	–	–	–	–
COc1ccc2c3c(ccc2c1)OC(c1ccccc1)(c1ccccc1)C=C3 [compound 1, 3,3-diphenyl-8-methoxy-3H-naphtho [2,1-b]pyran]	–	–	–	–	–	359	1.45	0.73	1.25 Δ OD/Min	–
C1=CC(c2ccccc2)(c2ccccc2)Oc2ccc3ccccc3c21 [compound 2, 3,3-diphenyl-3H-naphtho[2,1-b]pyran]	–	–	–	–	–	348	0.75	0.36	0.87 Δ OD/Min	–
COc1ccc(C2(c3ccc(OC)cc3OC)C=Cc3c(ccc4ccccc34)O2)cc1 (stereo not drawn) [compound 4, 3-(2,4-dimethoxyphenyl)-3-(4-methoxyphenyl)-3H-naphtho[2,1-b]pyran]	348	0.260	0.196	25	5.63	–	–	–	–	–
